In patent US7153876B2, “Malonamid and malonamic ester derivatives with antithrombotic activity, their preparation, and their use” (Sanofi-Aventis Deutschland GmbH, priority 2000, dated 2006):

Target: T1, human factor VIIa and TF (factor VIIa/TF) (Homo sapiens, UniProt P08709)
T1 construct: human factor VIIa and TF (5 nM and 10 nM, respective final concentration)
Assay: Factor VIIa (FVIIa) chromogenic assay
Assay type: biochemical
Details: inhibition constant towards factor VIIa/TF activity; chromogenic substrate S-2288 500 μM; 25° C.; 15 minute preincubation; factor VIIa 5 nM, TF 10 nM
Description: The ability of compounds of formula I to inhibit factor VIIa or other enzymes like factor Xa, thrombin, plasmin, or trypsin can be assessed by determining the concentration of the compound of formula I that inhibits enzyme activity by 50%, i.e., the IC50 value, which is related to the inhibition constant Ki. Purified enzymes are used in chromogenic assays. The concentration of inhibitor that causes a 50% decrease in the rate of substrate hydrolysis is determined by linear regression after plotting the relative rates of hydrolysis (compared to the uninhibited control) versus the log of the concentration of the compound of formula I. For calculating the inhibition constant Ki, the IC50 value is corrected for competition with substrate using the formula Ki=IC50/[1+(substrate concentration/Km)] wherein Km is the Michaelis-Menten constant (Chen and Prusoff, Biochem. Pharmacol. 22 (1973), 3099-3108; I. H. Segal, Enzyme Kinetics, 1975, John Wiley & Sons, New York, 100–125; which are incorporated herein by reference). Factor VIIa (FVIIa) Assay:
The inhibitory activity (expressed as inhibition constant Ki (FVIIa)) of compounds of formula I towards factor VIIa/TF activity was determined using a chromogenic assay essentially as described previously (J. A. Ostrem et al., Biochemistry 37 (1998) 1053–1059, which is incorporated herein by reference). Kinetic assays were conducted at 25° C. in half-area microtiter plates (Costar Corp., Cambridge, Mass.) using a kinetic plate reader (Molecular Devices Spectramax 250). A typical assay consisted of 25 μl human factor VIIa and TF (5 nM and 10 nM, respective final concentration) combined with 40 μl of inhibitor dilutions in 10% DMSO/TBS-PEG buffer (50 mM Tris, 15 mM NaCl, 5 mM CaCl2, 0.05% PEG 8000, pH 8.15). Following a 15 minute preincubation period, the assay was initiated by the addition of 35 μl of the chromogenic substrate S-2288 (D-IIe-Pro-Arg-p-nitroanilide, Pharmacia Hepar Inc., 500 μM final concentration).

T1 sequence (P08709 61-212 limits assumed): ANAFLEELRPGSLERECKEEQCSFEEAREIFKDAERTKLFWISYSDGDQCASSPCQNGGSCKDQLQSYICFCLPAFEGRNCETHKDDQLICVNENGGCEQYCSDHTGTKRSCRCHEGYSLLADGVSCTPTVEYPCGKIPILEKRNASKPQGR
T1 sequence (P08709 213-466 limits assumed): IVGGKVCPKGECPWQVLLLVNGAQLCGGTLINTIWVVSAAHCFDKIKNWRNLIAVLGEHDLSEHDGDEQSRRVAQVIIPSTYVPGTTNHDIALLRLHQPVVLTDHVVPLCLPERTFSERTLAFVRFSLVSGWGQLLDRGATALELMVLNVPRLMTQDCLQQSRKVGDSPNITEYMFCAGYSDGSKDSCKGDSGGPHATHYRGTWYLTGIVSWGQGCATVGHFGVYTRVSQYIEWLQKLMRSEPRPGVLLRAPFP
T1 sequence (P13726 33-295 partner): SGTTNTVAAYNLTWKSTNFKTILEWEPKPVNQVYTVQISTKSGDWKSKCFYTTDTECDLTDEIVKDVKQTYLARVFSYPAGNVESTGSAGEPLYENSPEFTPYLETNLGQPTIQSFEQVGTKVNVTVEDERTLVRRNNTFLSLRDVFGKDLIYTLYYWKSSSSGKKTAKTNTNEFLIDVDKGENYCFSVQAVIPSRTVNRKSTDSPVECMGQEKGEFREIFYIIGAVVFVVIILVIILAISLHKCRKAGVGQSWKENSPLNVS

Row | SMILES | Ki
1 | N=C(N)c1ccc(NC(=O)C(C(=O)OCc2ccccc2)c2ccccc2)cc1 (stereo not drawn) [Example 1, N-(4-Carbamimidoyl-Phenyl)-2-Phenyl-Malonamic Acid Benzyl Ester] | 14 µM
2 | CC(NC(=O)C(C(=O)Nc1ccc(C(=N)N)cc1)c1ccccc1)c1ccc([N+](=O)[O-])cc1 (stereo not drawn) [Example 3, N-(4-Carbamimidoyl-Phenyl)-N′-[1-(4-Nitro-Phenyl)-Ethyl]-2-Phenyl-Malonamide, Formiate] | 0.198 µM
3 | N#CC(NC(=O)C(C(=O)Nc1ccc(C(=N)N)cc1)c1ccccc1)c1ccccc1 (stereo not drawn) [Example 6] | 3.82 µM
4 | COc1ccc2c(c1)C[C@@H](NC(=O)C(C(=O)Nc1ccc(C(=N)N)cc1)c1ccccc1)CC2 (stereo partly drawn) [Example 8] | 7.12 µM
5 | C[C@H](NC(=O)C(C(=O)Nc1ccc(C(=N)N)cc1)c1ccccc1)c1ccc(Br)cc1 (stereo partly drawn) [Example 12] | 0.301 µM
6 | N=C(N)c1ccc(NC(=O)C(C(=O)NCc2c(Cl)cccc2Oc2ccccc2)c2ccccc2)cc1 (stereo not drawn) [Example 17] | 6.62 µM
7 | C[C@H](NC(=O)C(C(=O)Nc1ccc(C(=N)N)cc1)c1ccccc1)c1cccc(Br)c1 (stereo partly drawn) [Example 23] | 0.157 µM
8 | COc1ccc([C@H](C)NC(=O)C(C(=O)Nc2ccc(C(=N)N)cc2)c2ccccc2)cc1 (stereo partly drawn) [Example 26] | 0.381 µM
9 | N=C(N)c1ccc(NC(=O)C(C(=O)NCc2ccc(-c3csnn3)cc2)c2ccccc2)cc1 (stereo not drawn) [Example 28] | 6.02 µM

The remaining lines, values ahead:

Row | Ki | SMILES
10 | 3.01 µM | N=C(N)c1ccc(NC(=O)C(C(=O)NCc2cccc([N+](=O)[O-])c2)c2ccccc2)cc1 (stereo not drawn) [Example 35]
11 | 17.4 µM | COc1ccc(CNC(=O)C(C(=O)Nc2ccc(C(=N)N)cc2)c2ccccc2)cc1OC (stereo not drawn) [Example 38]
12 | 2.81 µM | N=C(N)c1ccc(NC(=O)C(CCc2ccccc2)C(=O)NCc2ccccc2)cc1 (stereo not drawn) [Example 40]
13 | 17.1 µM | C[C@H](NC(=O)C(CCc1ccccc1)C(=O)Nc1ccc(C(=N)N)cc1)c1ccc2ccccc2c1 (stereo partly drawn) [Example 42]
14 | 0.124 µM | C[C@H](NC(=O)C(C(=O)Nc1ccc(C(=N)N)cc1)c1ccccc1)c1ccc2ccccc2c1 (stereo partly drawn) [Example 43]
15 | 0.376 µM | C[C@H](NC(=O)CC(=O)Nc1ccc(C(=N)N)cc1)c1ccc2ccccc2c1 [Example 44]
